Source: US20090281049A1, “New use of ginsenoside compound-k in manufacturing medicaments” (priority 2006, published 2009)

Tests used:
[1] = test system: carrageenan-induced acute inflammation in mice; assay: Carrageenan-induced paw edema in mice; type: in vivo, Kunming mice
[2] = test system: Adjuvant Arthritis in rats; assay: Treatment effect on adjuvant induced adjuvant arthritis in rats; type: in vivo, Rat, SD strain
Method: Freund's Adjuvant Complete, purchased from Sigma Company, was injected into the plantar surface of the right hind paw by 0.1 ml in order to induce inflammation in rats.
Animals were firstly divided into large dose group: 10 mg/kg, iv, medium dose group: 5 mg/kg, iv, small dose group: 2.5 mg/kg, iv, Indomethacin group: 1 mg/kg, po, Tripterygium Wilfordii Hook group: 1.5 mg/kg, po. and blank control group: physiological saline 10 mg/kg, iv. The volume of the right hind paw of the rats was measured by using hydroplethismometer before inflammation induced. Then 0.1 ml Freund's Adjuvant Complete was injected into the plantar surface of the right hind paw in order to induce inflammation in rats. 20 days after inflammation induced, the rats were grouped by the foregoing division method and to be administered for 8 days. The volume of paw was measured in regular intervals. Swell rate and inhibition rate were calculated with the same method as the foregoing. Differences among groups were compared with t test.

[3] = mice, 360 mg/kg iv

SMILES: CC(C)=CCC[C@](C)(O[C@@H]1O[C@H](CO)[C@@H](O)[C@H](O)[C@H]1O)[C@H]1CC[C@]2(C)[C@@H]1[C@H](O)C[C@@H]1[C@@]3(C)CC[C@H](O)C(C)(C)[C@@H]3CC[C@]12C [Ginsenoside Compound-K, ginsenoside Compound-K]
- swell value ([1]; 2.5 mg/kg iv, 0 h): 1.49 ± 0.15 mL
- inhibition rate ([1]; 2.5 mg/kg iv, 1 h): <14.70> %
- swell rate ([1]; 2.5 mg/kg iv, 1 h): (66.63 ± 7.82) %
- swell value ([1]; 2.5 mg/kg iv, 1 h): 2.36 ± 0.22 mL
- inhibition rate ([1]; 2.5 mg/kg iv, 2 h): <12.30> %
- swell rate ([1]; 2.5 mg/kg iv, 2 h): (64.26 ± 14.54) %
- swell value ([1]; 2.5 mg/kg iv, 2 h): 2.43 ± 0.23 mL
- inhibition rate ([1]; 2.5 mg/kg iv, 4 h): <29.40> %
- swell rate ([1]; 2.5 mg/kg iv, 4 h): (61.75 ± 11.27) %
- swell value ([1]; 2.5 mg/kg iv, 4 h): 2.33 ± 0.17 mL
- inhibition rate ([1]; 2.5 mg/kg iv, 6 h): <31.64> %
- swell rate ([1]; 2.5 mg/kg iv, 6 h): (53.48 ± 11.12) %
- swell value ([1]; 2.5 mg/kg iv, 6 h): 2.22 ± 0.15 mL
- swell value ([1]; 5 mg/kg iv, 0 h): 1.47 ± 0.13 mL
- inhibition rate ([1]; 5 mg/kg iv, 1 h): <11.33> %
- swell rate ([1]; 5 mg/kg iv, 1 h): (60.97 ± 18.09) %
- swell value ([1]; 5 mg/kg iv, 1 h): 2.36 ± 0.23 mL
- inhibition rate ([1]; 5 mg/kg iv, 2 h): <16.08> %
- swell rate ([1]; 5 mg/kg iv, 2 h): (60.97 ± 18.41) %
- swell value ([1]; 5 mg/kg iv, 2 h): 2.35 ± 0.16 mL
- inhibition rate ([1]; 5 mg/kg iv, 4 h): <44.03> %
- swell rate ([1]; 5 mg/kg iv, 4 h): (45.04 ± 18.30) %
- swell value ([1]; 5 mg/kg iv, 4 h): 2.12 ± 0.22 mL
- inhibition rate ([1]; 5 mg/kg iv, 6 h): <31.98> %
- swell rate ([1]; 5 mg/kg iv, 6 h): (49.81 ± 17.26) %
- swell value ([1]; 5 mg/kg iv, 6 h): 2.19 ± 0.19 mL
- swell value ([1]; 10 mg/kg iv, 0 h): 1.56 ± 0.17 mL
- inhibition rate ([1]; 10 mg/kg iv, 1 h): <40.64> %
- swell rate ([1]; 10 mg/kg iv, 1 h): (40.81 ± 10.14) %
- swell value ([1]; 10 mg/kg iv, 1 h): 2.18 ± 0.18 mL
- inhibition rate ([1]; 10 mg/kg iv, 2 h): <42.79> %
- swell rate ([1]; 10 mg/kg iv, 2 h): (41.56 ± 13.38) %
- swell value ([1]; 10 mg/kg iv, 2 h): 2.19 ± 0.20 mL
- inhibition rate ([1]; 10 mg/kg iv, 4 h): <65.66> %
- swell rate ([1]; 10 mg/kg iv, 4 h): (27.64 ± 8.46) %
- swell value ([1]; 10 mg/kg iv, 4 h): 1.98 ± 0.20 mL
- inhibition rate ([1]; 10 mg/kg iv, 6 h): <67.80> %
- swell rate ([1]; 10 mg/kg iv, 6 h): (23.58 ± 15.23) %
- swell value ([1]; 10 mg/kg iv, 6 h): 1.91 ± 0.22 mL
- overall effect on carrageenan-induced acute inflammation ([1]; mice, 10, 5, 2.5 mg/kg iv): able to inhibit carrageenan-induced acute inflammation in mice obviously
- swell value ([2]; 2.5 mg/kg iv, 0 day): 1.06 ± 0.09 mL
- inhibition rate ([2]; 2.5 mg/kg iv, 19 day): <14.36> %
- swell rate ([2]; 2.5 mg/kg iv, 19 day): (84.26 ± 14.31) %
- swell value ([2]; 2.5 mg/kg iv, 19 day): 1.96 ± 0.16 mL
- inhibition rate ([2]; 2.5 mg/kg iv, 21 day): <15.81> %
- swell rate ([2]; 2.5 mg/kg iv, 21 day): (89.42 ± 18.47) %
- swell value ([2]; 2.5 mg/kg iv, 21 day): 2.00 ± 0.07 mL
- inhibition rate ([2]; 2.5 mg/kg iv, 23 day): <24.02> %
- swell rate ([2]; 2.5 mg/kg iv, 23 day): (80.92 ± 16.84) %
- swell value ([2]; 2.5 mg/kg iv, 23 day): 1.91 ± 0.08 mL
- inhibition rate ([2]; 2.5 mg/kg iv, 26 day): <27.71> %
- swell rate ([2]; 2.5 mg/kg iv, 26 day): (81.13 ± 10.03) %
- swell value ([2]; 2.5 mg/kg iv, 26 day): 1.92 ± 0.08 mL
- inhibition rate ([2]; 2.5 mg/kg iv, 30 day): <19.36> %
- swell rate ([2]; 2.5 mg/kg iv, 30 day): (84.80 ± 19.66) %
- swell value ([2]; 2.5 mg/kg iv, 30 day): 1.96 ± 0.16 mL
- swell value ([2]; 5 mg/kg iv, 0 day): 1.10 ± 0.09 mL
- inhibition rate ([2]; 5 mg/kg iv, 19 day): <17.31> %
- swell rate ([2]; 5 mg/kg iv, 19 day): (81.36 ± 13.10) %
- swell value ([2]; 5 mg/kg iv, 19 day): 2.00 ± 0.12 mL
- inhibition rate ([2]; 5 mg/kg iv, 21 day): <20.85> %
- swell rate ([2]; 5 mg/kg iv, 21 day): (84.07 ± 18.91) %
- swell value ([2]; 5 mg/kg iv, 21 day): 2.03 ± 0.20 mL
- inhibition rate ([2]; 5 mg/kg iv, 23 day): <23.19> %
- swell rate ([2]; 5 mg/kg iv, 23 day): (81.81 ± 14.58) %
- swell value ([2]; 5 mg/kg iv, 23 day): 2.01 ± 0.23 mL
- inhibition rate ([2]; 5 mg/kg iv, 26 day): <27.40> %
- swell rate ([2]; 5 mg/kg iv, 26 day): (81.48 ± 11.30) %
- swell value ([2]; 5 mg/kg iv, 26 day): 2.00 ± 0.19 mL
- inhibition rate ([2]; 5 mg/kg iv, 30 day): <20.33> %
- swell rate ([2]; 5 mg/kg iv, 30 day): (83.77 ± 17.65) %
- swell value ([2]; 5 mg/kg iv, 30 day): 2.03 ± 0.25 mL
- swell value ([2]; 10 mg/kg iv, 0 day): 1.05 ± 0.09 mL
- inhibition rate ([2]; 10 mg/kg iv, 19 day): <9.69> %
- swell rate ([2]; 10 mg/kg iv, 19 day): (88.85 ± 23.27) %
- swell value ([2]; 10 mg/kg iv, 19 day): 1.97 ± 0.24 mL
- inhibition rate ([2]; 10 mg/kg iv, 21 day): <31.57> %
- swell rate ([2]; 10 mg/kg iv, 21 day): (72.69 ± 29.97) %
- swell value ([2]; 10 mg/kg iv, 21 day): 1.81 ± 0.33 mL
- inhibition rate ([2]; 10 mg/kg iv, 23 day): <31.92> %
- swell rate ([2]; 10 mg/kg iv, 23 day): (72.50 ± 22.18) %
- swell value ([2]; 10 mg/kg iv, 23 day): 1.80 ± 0.21 mL
- inhibition rate ([2]; 10 mg/kg iv, 26 day): <36.15> %
- swell rate ([2]; 10 mg/kg iv, 26 day): (71.66 ± 24.46) %
- swell value ([2]; 10 mg/kg iv, 26 day): 1.79 ± 0.24 mL
- inhibition rate ([2]; 10 mg/kg iv, 30 day): <32.32> %
- swell rate ([2]; 10 mg/kg iv, 30 day): (71.17 ± 17.97) %
- swell value ([2]; 10 mg/kg iv, 30 day): 1.80 ± 0.26 mL
- overall treatment effect on Adjuvant Arthritis ([2]; rats, 10, 5, 2.5 mg/kg iv for 8 days from day 20): able to cure Adjuvant Arthritis in rats
- behaviour after intravenous injection [3]: their act was normal and no behavior out of the way was observed
